From patent US9717715B2, “Method of combination therapy using an anti-C-Met antibody” (Samsung Electronics Co., Ltd., priority 2013, dated 2017)

Columns and labels:
[1] = test system: breast cancer cell line BT-474; experiment: Combination cell viability CTG assay, BT-474; assay type: cell-based; details: BT-474, 72 hours
Method: (§1) Cell proliferation in response to antibody treatment in vitro was assessed by a CTG (Promega) assay according to manufacturer's instructions. EBC1, HT-29, BT-474, HCC1806, HCC1954 and MKN45 cells were respectively plated at a density of 5×10^3 cells per well in FBS 10% (v/v) RPMI 1640 medium (Gibco) onto a 96-well plate (BD). The HT-29 (HTB-38), BT-474 (HTB-20), HCC1806 (CRL-2335) and HCC1954 (CRL-2338) cell lines were all purchased from ATCC. MKN45 (JCRB0254) and EBC1 (JCRB0820) cell lines were purchased from the Health Science Research Resource Bank. After 24 hours incubation, the c-Met targeting antibody huAbF46-H4-A1 (IgG2 Fc) was added alone or in combination with another drug (lapatinib, regorafenib or vemurafenib) diluted in 10% FBS (v/v) RPMI medium. Lapatinib, regorafenib and vemurafenib were purchased from Selleck Chemicals.
For the combination treatment of each experiment, IC20 concentration of one drug (drug A) and differing amounts of the other drug (drug B) were treated to see if the efficacy of drug B is improved by combi-treatment with drug A in a dose-dependent manner (see FIGS. 16-22). After 72 hours incubation, 100 μL of the CTG reagent (Promega) was added to each well followed by incubation at 37° C. for 30 minutes. The luminescence was measured using an Envision Multilabel Plate Reader (Perkin Elmer).

[2] = test system: human gastric cancer MKN45 cells; experiment: MKN45 orthotopic xenograft (metastasis); assay type: in vivo, mouse; details: 5-FU group, dose not given
Text: For the MKN45 orthotopic xenograft experiment, human gastric cancer MKN45 cells (Japanese Cancer Research Bank, JCRB, Tokyo, Japan) were inoculated into donor BALB/C nude mice. When the tumor size reached the size of 600-800 mm3, the donor mice were euthanized, and the tumor was excised through sterile surgical procedure. The tumors were cut into fragments the size of 1×1×1 mm and implanted into the wall of great gastric curvature of recipient mice through sterile surgery under isoflurane anesthesia. 7 days after the surgery, recipient mice with orthotopic tumors were randomized into groups according to body weight and dosing was commenced. huAbF46-H4-A1 (IgG2 Fc) was injected into a vein once a week for 9 weeks. At the end of the in vivo study, orthotopic tumor weight was recorded and metastasis to the other organ was checked by macroscopic examination.

[3] = test system: breast cancer cell line HCC1954; experiment: Combination cell viability CTG assay, HCC1954; assay type: cell-based; details: HCC1954, 72 hours, FIG. 18
Method: as §1
(§2) After 72 hours incubation, 100 μL of the CTG reagent (Promega) was added to each well followed by incubation at 37° C. for 30 minutes. The luminescence was measured using an Envision Multilabel Plate Reader (Perkin Elmer).

[4] = test system: colorectal cancer cell line HT29; experiment: Combination cell viability CTG assay, HT29; assay type: cell-based; details: HT29, 72 hours, FIG. 19
Method: as §1, §2

[5] = test system: breast cancer cell line HCC1806; experiment: Combination cell viability CTG assay, HCC1806; assay type: cell-based; details: HCC1806, 72 hours, FIG. 17
Method: as §1, §2

[6] = test system: MHCC97H (human liver cancer cell line); experiment: MHCC97H xenograft model; assay type: in vivo, mouse; details: 30 mg/kg p.o. q.d. x 4 weeks
Method: The antitumor activity of huAbF46-H4-A1 (IgG2 Fc) was evaluated in a BALB/C nude mouse MHCC97H (human liver cancer cell line) xenograft model (referring to Example 16.2). Approximately 3 million MHCC97H cells in 100 μL of serum-free media were injected via s.c. to each of the 140 mice under anesthesia by 1-2% isoflurane. Ten days after subcutaneous inoculation with MHCC97H tumor cells, dosing commenced in the following treatment groups: 0 (PBS vehicle), 0.2, 1, 5 or 10 mg/kg huAbF46-H4-A1 (IgG2 Fc) i.v., q.w.×4 weeks; 30 mg/kg sorafenib p.o., q.d.×4 weeks (positive control). Each group consisted of 15 mice. Tumor volumes and body weights were measured two to three times a week for total study period about 4 weeks. The tumor volume (V) was calculated as follows: V (mm^3)={long axis length (mm)×(short axis length (mm))^2}/2.

## CNC(=O)c1cc(Oc2ccc(NC(=O)Nc3ccc(Cl)c(C(F)(F)F)c3)c(F)c2)ccn1 [regorafenib]
[1]; FIG. 20
  anti-tumor efficacy (cell viability) when co-treated with huAbF46-H4-A1 (IgG2 Fc): significantly improved

## O=c1[nH]cc(F)c(=O)[nH]1 [Antibody 5-FU, 5-FU, reference compound]
[2]
  Number of metastasis lesion: 0

## CS(=O)(=O)CCNCc1ccc(-c2ccc3ncnc(Nc4ccc(OCc5cccc(F)c5)c(Cl)c4)c3c2)o1 [lapatinib]
[1]; FIG. 16
  anti-tumor efficacy (cell viability) when co-treated with huAbF46-H4-A1 (IgG2 Fc): significantly improved
[3]
  anti-tumor efficacy (cell viability) when co-treated with huAbF46-H4-A1 (IgG2 Fc): significantly improved
[4]
  anti-tumor efficacy (cell viability) when co-treated with huAbF46-H4-A1 (IgG2 Fc): significantly improved
[5]
  anti-tumor efficacy (cell viability) when co-treated with huAbF46-H4-A1 (IgG2 Fc): significantly improved

## CNC(=O)c1cc(Oc2ccc(NC(=O)Nc3ccc(Cl)c(C(F)(F)F)c3)cc2)ccn1 [sorafenib, reference compound]
[6]
  tumor growth: significant inhibition of MHCC97H tumor growth
